Patent US7915268B2, “8-substituted 2-(benzimidazolyl)purine derivatives for immunosuppression” (Wyeth LLC, priority 2006, dated 2011)

Biological target: T1, Jak3 (Homo sapiens, UniProt P52333)
T1 construct: catalytic domain of Jak3 (508aa to 1124aa); made in house; host or cells: Sf9 insect cells (baculovirus, pFastBac 1)
T1 sequence (P52333 508-1124): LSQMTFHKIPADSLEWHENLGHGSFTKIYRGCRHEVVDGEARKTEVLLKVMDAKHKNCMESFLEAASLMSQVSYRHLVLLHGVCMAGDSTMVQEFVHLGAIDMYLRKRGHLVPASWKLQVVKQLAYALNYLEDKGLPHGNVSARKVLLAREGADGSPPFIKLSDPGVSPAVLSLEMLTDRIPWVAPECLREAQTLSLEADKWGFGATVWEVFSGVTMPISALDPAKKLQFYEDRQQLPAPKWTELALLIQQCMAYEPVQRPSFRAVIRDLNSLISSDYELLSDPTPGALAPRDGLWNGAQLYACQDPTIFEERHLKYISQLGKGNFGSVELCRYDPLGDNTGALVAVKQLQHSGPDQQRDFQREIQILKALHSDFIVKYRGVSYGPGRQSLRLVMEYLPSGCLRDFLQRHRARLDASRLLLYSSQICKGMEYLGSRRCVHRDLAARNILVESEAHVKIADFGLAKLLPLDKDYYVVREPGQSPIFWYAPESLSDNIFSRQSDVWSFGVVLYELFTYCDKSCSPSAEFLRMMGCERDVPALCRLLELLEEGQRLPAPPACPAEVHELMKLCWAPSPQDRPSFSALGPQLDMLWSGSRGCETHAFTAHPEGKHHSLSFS
Assay: Jak3 Kinase Assay (HTRF, GST-Jak3 catalytic domain)
Assay type: biochemical
Conditions: 1 μM ATP, 60-min incubation, read-out: Jak 3 (Converted)
Experimental: Human Jak3 cDNA was amplified by PCR. A fragment encoding the catalytic domain of Jak3 (508aa to 1124aa) was ligated with GST at 5′ end. This fused GST-Jak3 DNA fragment was cloned into the EcoRI site of the donor plasmid pFastBac 1 (Life Technologies #10359-016). The transformation, transposition, and transfection of insect cells (Sf9) were performed according to the manufacture's instructions. The cell lysate containing recombinant GST-Jak3 was used in the kinase assay. Anti-GST antibody (10 μg/ml, Sigma #G1417) was coated onto a 384-well plate at 4° C. overnight. Cell lysate containing GST-Jak3 (1:100 dilution) was added to the anti-GST coated plates, and GST-Jak3 was captured by immobilized anti-GST antibody. Testing compounds and substrate mix (50 mM HEPES, pH 7, 0.5 mM Na3VO4, 25 mM MgCl2, 1 mM DTT, 0.005% BSA, 1 μM ATP, and 4.5 μg/ml biotinyl poly-Glu, Ala, Tyr) were added to the plate to initiate the reaction. After a 60-min incubation, the reaction was stopped by 4 mM EDTA, and phosphorylation of biotinyl poly-Glu, Ala, Tyr was detected using 17 μg/ml Cy5-streptavidin (Amersham, #PA92005) and 2.7 μg/ml Europium-conjugated anti-phosphotyrosine antibody (PerkinElmer #AD0069) using homogeneous time-resolved fluorescence (HTRF) technology.

`N#Cc1ccc2ncn(-c3ncc4nc(NCCN5CCCCC5)n(C5CCOCC5)c4n3)c2c1` [Example 94] and `N#Cc1ccc2ncn(-c3ncc4nc(NCCN5CCOCC5)n(C5CCOCC5)c4n3)c2c1` [Example 95] cannot be ordered by IC50: < 100 nM for the first, < 100 nM for the second.

`N#Cc1ccc2ncn(-c3ncc4nc(-c5cccnc5)n([C@@H]5CCOc6c(F)cccc65)c4n3)c2c1` [Example 5] and `N#Cc1ccc2ncn(-c3ncc4nc(-c5cncnc5)n([C@@H]5CCOc6ccccc65)c4n3)c2c1` [Example 11] cannot be ordered by IC50: < 100 nM for the first, < 100 nM for the second.

`c1ccc(Cn2c(-c3ccccc3)nc3cnc(-n4cnc5ccccc54)nc32)cc1` [Example 89] and `Cc1nc2cnc(-n3cnc4ccccc43)nc2n1Cc1ccccc1` [Example 82] cannot be ordered by IC50: > 1000 nM for the first, > 1000 nM for the second.

Compared with `Fc1ccc2ncn(-c3ncc4nc(-c5cnc[nH]5)n(C5CCOCC5)c4n3)c2c1` [Example 30], `Fc1ccc2ncn(-c3ncc4nc(-c5ccc[nH]5)n(C5CCOCC5)c4n3)c2c1` [Example 62] is lower in IC50: 100 to 1000 nM for the first, < 100 nM for the second.

First: Fc1ccc2ncn(-c3ncc4nc(-c5cccc(Br)c5)n(C5CCOCC5)c4n3)c2c1 [Example 57]
Second: Oc1cccc(-c2nc3cnc(-n4cnc5ccc(F)cc54)nc3n2C2CCOCC2)c1 [Example 71]
The IC50 of the first is higher: > 1000 nM for the first, < 100 nM for the second.

`CCNc1nc2cnc(-n3cnc4ccc(C#N)cc43)nc2n1C1CCOCC1` [Example 96, 3-(8-(ethylamino)-9-(tetrahydro-2H-pyran-4-yl)-9H-purin-2-yl)-3H-benzo[d]imidazole-5-carbonitrile] and `N#Cc1ccc2ncn(-c3ncc4nc(Cl)n(C5CCOCC5)c4n3)c2c1` [Example 101] cannot be ordered by IC50: < 100 nM for the first, < 100 nM for the second.

First: Cc1ccc([C@@H](C)n2c(C)nc3cnc(-n4cnc5ccc(C#N)cc54)nc32)o1 [Example 99]
Second: Cc1nc2cnc(-n3cnc4ccc(C#N)cc43)nc2n1C1CCOc2ccc(F)cc21 (centres unmarked) [Example 24]
The IC50 of the first is higher: 100 to 1000 nM for the first, < 100 nM for the second. The second is the more potent here.

First: Fc1ccc2ncn(-c3ncc4nc(-c5ccc(F)nc5)n([C@@H]5CCOc6c(F)cccc65)c4n3)c2c1 [Example 103, 2-(6-fluoro-1H-benzo[d]imidazol-1-yl)-9-((R)-8-fluorochroman-4-yl)-8-(6-fluoropyridin-3-yl)-9H-purine]
Second: Oc1cccc(-c2nc3cnc(-n4cnc5ccc(F)cc54)nc3n2[C@@H]2CCOc3c(F)cccc32)c1 [Example 28]
The IC50 of the first is lower: < 100 nM for the first, 100 to 1000 nM for the second. The first is the more potent here.

`Fc1ccc2ncn(-c3ncc4nc(Cc5ccccc5)n(C5CCOCC5)c4n3)c2c1` [Example 90, 8-Benzyl-2-(6-fluoro-1H-benzo[d]imidazol-1-yl)-9-(tetrahydro-2H-pyran-4-yl)-9H-purine] and `Fc1ccc2ncn(-c3ncc4nc(-c5ccccn5)n(C5CCOCC5)c4n3)c2c1` [Example 66] fall in the same range of IC50: 100 to 1000 nM for the first, 100 to 1000 nM for the second.

`Cc1nc2cnc(-n3cnc4ccc(OC(F)(F)F)cc43)nc2n1C1CCOCC1` [Example 76, 8-Methyl-9-(tetrahydro-2H-pyran-4-yl)-2-(6-(trifluoromethoxy)-1H-benzo[d]imidazol-1-yl)-9H-purine] and `Cc1nc2cnc(-n3cnc4ccccc43)nc2n1C1CCOCC1` [Example 83] cannot be ordered by IC50: < 100 nM for the first, < 100 nM for the second.

First: N#Cc1ccc2ncn(-c3ncc4nc(Nc5ccc(S(N)(=O)=O)cc5)n(C5CCOCC5)c4n3)c2c1 [Example 105, 4-(2-(6-cyano-1H-benzo[d]imidazol-1-yl)-9-(tetrahydro-2H-pyran-4-yl)-9H-purin-8-ylamino)benzenesulfonamide]
Second: N#Cc1cccc(Nc2nc3cnc(-n4cnc5ccc(Cl)cc54)nc3n2C2CCOCC2)c1 [Example 110]
The IC50 of the first is lower: < 100 nM for the first, > 1000 nM for the second.

First: O=C(O)c1cccc(-c2nc3cnc(-n4cnc5ccc(F)cc54)nc3n2C2CCOCC2)c1 [Example 45]
Second: Fc1ccc2ncn(-c3ncc4nc(-c5cccc(Cl)c5)n(C5CCOCC5)c4n3)c2c1 [Example 60]
The IC50 of the first is lower: < 100 nM for the first, 100 to 1000 nM for the second. The first is the more potent here.

`N#Cc1ccc2ncn(-c3ncc4nc(-c5cncnc5)n([C@@H]5CCOc6ccc(F)cc65)c4n3)c2c1` [Example 2] and `N#Cc1ccc2ncn(-c3ncc4nc(-c5cncnc5)n([C@@H]5CCOc6c(F)cc(F)cc65)c4n3)c2c1` [Example 15] cannot be ordered by IC50: < 100 nM for the first, < 100 nM for the second.

First: N#Cc1ccc2ncn(-c3ncc4nc(Nc5cccnc5)n([C@@H]5CCOc6ccccc65)c4n3)c2c1 [Example 104]
Second: N#Cc1ccc2ncn(-c3ncc4nc(Nc5cccc(C(F)(F)F)c5)n([C@@H]5CCOc6ccccc65)c4n3)c2c1 [Example 106]
The IC50 of the first is lower: < 100 nM for the first, 100 to 1000 nM for the second. The first is the more potent here.

First: Fc1ccc(-c2nc3cnc(-n4cnc5ccc(F)cc54)nc3n2C2CCOCC2)nc1 [Example 68]
Second: Fc1ccc2ncn(-c3ncc4nc(-c5ccncn5)n(C5CCOCC5)c4n3)c2c1 [Example 69]
The IC50 of the first is higher: 100 to 1000 nM for the first, < 100 nM for the second.

`N#Cc1ccc2ncn(-c3ncc4nc(NCC5CCCO5)n(C5CCOCC5)c4n3)c2c1` (centres unmarked) [Example 93] and `N#Cc1ccc2ncn(-c3ncc4nc(Nc5ccccc5F)n(C5CCOCC5)c4n3)c2c1` [Example 109] cannot be ordered by IC50: < 100 nM for the first, < 100 nM for the second.

Going from `Fc1ccc2ncn(C3N=c4c(nc(-c5ccnc6ccccc56)n4C4CCOCC4)=CN3)c2c1` (centres unmarked) [Example 56] to `Fc1ccc2ncn(-c3ncc4nc(-c5cccnc5)n(C5CCOCC5)c4n3)c2c1` [Example 37], the IC50 falls from > 1000 nM to < 100 nM. The second is the more potent here.

First: COc1ccccc1-c1nc2cnc(-n3cnc4ccc(C#N)cc43)nc2n1C1CCOCC1 [Example 18]
Second: N#Cc1ccc2ncn(-c3ncc4nc(-c5ccccc5)n(C5CCOCC5)c4n3)c2c1 [Example 16]
The IC50 of the first is higher: 100 to 1000 nM for the first, < 100 nM for the second.

Compared with `COCCC(C)n1c(-c2c[nH]c3ccccc23)nc2cnc(-n3cnc4ccc(F)cc43)nc21` (centres unmarked) [Example 27], `Cc1nc2cnc(-n3cnc4ccc(F)cc43)nc2n1[C@@H]1CCOc2ccccc21` [Example 78] is lower in IC50: 100 to 1000 nM for the first, < 100 nM for the second. The second is the more potent here.

`Fc1cccc2c1COC[C@H]2n1c(-c2ccccc2)nc2cnc(-n3cnc4ccccc43)nc21` [Example 87] and `c1ccc(-c2nc3cnc(-n4cnc5ccccc54)nc3n2C2CCOCC2)cc1` [Example 91] fall in the same range of IC50: 100 to 1000 nM for the first, 100 to 1000 nM for the second.

Compared with `CC(C)Sc1nccc(-c2nc3cnc(-n4cnc5ccc(C#N)cc54)nc3n2[C@@H]2CCOc3c(F)ccc(F)c32)n1` [Example 20], `Fc1ccc2ncn(-c3ncc4nc(Cl)n([C@@H]5CCOc6c(F)cccc65)c4n3)c2c1` [Example 102, 8-chloro-2-(6-fluoro-1H-benzo[d]imidazol-1-yl)-9-((R)-8-fluorochroman-4-yl)-9H-purine] is lower in IC50: 100 to 1000 nM for the first, < 100 nM for the second.

First: Cc1nc2cnc(-n3cnc4ccc(C#N)cc43)nc2n1[C@@H]1CC[C@@H](O)c2ccccc21 [Example 100, 3-(9-((1R,4R)-4-Hydroxy-1,2,3,4-tetrahydronaphthalen-1-yl)-8-methyl-9H-purin-2-yl)-3H-benzo[d]imidazole-5-carbonitrile]
Second: CO[C@H]1CC[C@H](n2c(C)nc3cnc(-n4cnc5ccc(C#N)cc54)nc32)CC1 [Example 23]
The IC50 of the first is lower: < 100 nM for the first, 100 to 1000 nM for the second.

`CC(C)(C)c1nc2cnc(-n3cnc4ccc(F)cc43)nc2n1C1CCOCC1` [Example 34] and `Fc1ccc2ncn(-c3ncc4nc(-c5ccco5)n(C5CCOCC5)c4n3)c2c1` [Example 35] cannot be ordered by IC50: < 100 nM for the first, < 100 nM for the second.

`Nc1ncc(-c2nc3cnc(-n4cnc5ccc(F)cc54)nc3n2C2CCOCC2)cn1` [Example 59] and `Nc1nccc(-c2nc3cnc(-n4cnc5ccc(F)cc54)nc3n2C2CCOCC2)n1` [Example 53] cannot be ordered by IC50: < 100 nM for the first, < 100 nM for the second.

`Fc1ccc2ncn(-c3ncc4nc(-c5ccc(C(F)(F)F)nc5)n(C5CCOCC5)c4n3)c2c1` [Example 51] and `Fc1ccc2ncn(-c3ncc4nc(-c5ccc(Cl)nc5)n(C5CCOCC5)c4n3)c2c1` [Example 47] cannot be ordered by IC50: < 100 nM for the first, < 100 nM for the second.

Compared with `CN(C)c1ncc(-c2nc3cnc(-n4cnc5ccc(C#N)cc54)nc3n2C2CCOCC2)cn1` [Example 17], `COc1ccc(-c2nc3cnc(-n4cnc5ccc(C#N)cc54)nc3n2C2CCOCC2)cc1` [Example 19] is higher in IC50: < 100 nM for the first, 100 to 1000 nM for the second. The first is the more potent here.

`Fc1ccc2ncn(-c3ncc4c(n3)C([C@@H]3CCOc5ccccc53)C(CCl)=N4)c2c1` (some centres unmarked) [Example 77] and `Fc1ccc2ncn(-c3ncc4nc(-c5ccoc5)n(C5CCOCC5)c4n3)c2c1` [Example 70] cannot be ordered by IC50: < 100 nM for the first, < 100 nM for the second.

Compared with `COCCCn1c(-c2ccccc2)nc2cnc(-n3cnc4ccccc43)nc21` [Example 85], `Oc1cccc(-c2nc3cnc(-n4cnc5ccc(Cl)cc54)nc3n2C2CCOCC2)c1` [Example 40] is lower in IC50: > 1000 nM for the first, < 100 nM for the second. The second is the more potent here.
